Test results published in the NIST ThermoML archive (doi:10.1021/acs.jced.6b01043).

Test: relative permittivity at zero frequency (dimensionless); xn = mol fraction of the nth substance listed
Settings: Gas, Reentrant cavity resonator

[Ar] [argon] + O=C=O
Settings | relative permittivity at zero frequency
255.1 K, 2068.9 kPa, x1 = 0.0505 | 1.02661
260.14 K, 2446.9 kPa, x1 = 0.0505 | 1.03197
266.15 K, 2919.5 kPa, x1 = 0.0505 | 1.03887
271.4 K, 3365.6 kPa, x1 = 0.0505 | 1.04566
273.2 K, 454.8 kPa, x1 = 0.2491 | 1.004
273.2 K, 962.7 kPa, x1 = 0.2491 | 1.0088
273.2 K, 1001.6 kPa, x1 = 0.2491 | 1.0091
273.2 K, 2004.3 kPa, x1 = 0.2491 | 1.0195
273.2 K, 2014.8 kPa, x1 = 0.2491 | 1.0196
273.2 K, 3008.7 kPa, x1 = 0.2491 | 1.0314
273.2 K, 4029 kPa, x1 = 0.2491 | 1.0459
273.2 K, 4487 kPa, x1 = 0.2491 | 1.0535
273.21 K, 506.6 kPa, x1 = 0.2491 | 1.0045
279.73 K, 4266.1 kPa, x1 = 0.0505 | 1.06129
279.73 K, 4267.8 kPa, x1 = 0.0505 | 1.06132
283.23 K, 492.8 kPa, x1 = 0.2491 | 1.0042
283.23 K, 969.4 kPa, x1 = 0.0505 | 1.00945
283.23 K, 4007.7 kPa, x1 = 0.0505 | 1.05273
283.23 K, 4493.9 kPa, x1 = 0.0505 | 1.06407
283.23 K, 6491.3 kPa, x1 = 0.2491 | 1.0858
283.24 K, 1029.9 kPa, x1 = 0.0505 | 1.01008
283.24 K, 2002 kPa, x1 = 0.2491 | 1.0185
283.24 K, 2006.1 kPa, x1 = 0.0505 | 1.0212
283.24 K, 2011.5 kPa, x1 = 0.0505 | 1.02127
283.24 K, 2992.8 kPa, x1 = 0.2491 | 1.0294
283.24 K, 2993.3 kPa, x1 = 0.2491 | 1.0294
283.24 K, 2998.2 kPa, x1 = 0.0505 | 1.03482
283.24 K, 3973.7 kPa, x1 = 0.0505 | 1.05203
283.24 K, 3995.6 kPa, x1 = 0.2491 | 1.042
283.24 K, 4006.4 kPa, x1 = 0.2491 | 1.0421
283.24 K, 4991.8 kPa, x1 = 0.2491 | 1.0568
283.24 K, 5983.5 kPa, x1 = 0.2491 | 1.0748
283.24 K, 5987 kPa, x1 = 0.2491 | 1.0749
283.25 K, 1008.9 kPa, x1 = 0.2491 | 1.0088
283.25 K, 2012.2 kPa, x1 = 0.2491 | 1.0186
283.44 K, 4710.8 kPa, x1 = 0.0505 | 1.06985
289.87 K, 5632 kPa, x1 = 0.0505 | 1.09119
292.67 K, 6086.3 kPa, x1 = 0.0505 | 1.10382
293.27 K, 1007.1 kPa, x1 = 0.2491 | 1.0085
293.27 K, 2005.7 kPa, x1 = 0.2491 | 1.0177
293.27 K, 3006.2 kPa, x1 = 0.2491 | 1.0279
293.27 K, 4006.6 kPa, x1 = 0.2491 | 1.0394
293.27 K, 4993.4 kPa, x1 = 0.2491 | 1.0523
293.27 K, 5847.6 kPa, x1 = 0.2491 | 1.0651
293.27 K, 6499.2 kPa, x1 = 0.2491 | 1.0761
293.28 K, 3999.6 kPa, x1 = 0.2491 | 1.0393
293.28 K, 5994.6 kPa, x1 = 0.2491 | 1.0674
294.27 K, 6419.2 kPa, x1 = 0.0505 | 1.11591
313.26 K, 2602.6 kPa, x1 = 0.0505 | 1.02461
313.26 K, 3052 kPa, x1 = 0.0505 | 1.02963
313.26 K, 3592.1 kPa, x1 = 0.0505 | 1.03607
313.28 K, 7083.6 kPa, x1 = 0.0505 | 1.0967
313.29 K, 4089.6 kPa, x1 = 0.0505 | 1.04247
313.3 K, 4550.7 kPa, x1 = 0.0505 | 1.04884
313.3 K, 5083 kPa, x1 = 0.0505 | 1.05688
313.3 K, 5566.4 kPa, x1 = 0.0505 | 1.06488
313.3 K, 6028.4 kPa, x1 = 0.0505 | 1.07333
313.3 K, 6550 kPa, x1 = 0.0505 | 1.08408
313.3 K, 7027.1 kPa, x1 = 0.0505 | 1.09523
